What was measured:
[1] = liver microsomal metabolic stability, rat; conditions: Fu and RB assumed to be 1
Method: (§1) Hepatic Microsomal Metabolic Stability
(§2) A13bGa1 was co-incubated with the mouse, rat, canine, monkey and human […] and the incubation medium at a final drug concentration of 1 μM in the incubation system for 60 minutes. Samples were taken and analyzed at time points 0, 15, 30, 45 and 60 minutes during the incubation. The reaction was terminated by adding an amount of acetonitrile solution containing the internal standard. […] The residual percentage, half-life, intrinsic clearance, amplified clearance, hepatic clearance and hepatic extraction ratio were determined. The entire experiment was performed in triplicate. All data calculations were performed by Microsoft Excel software. Peak areas were detected by extracting the ionic spectrum. The in vitro half-life (t1/2) of the parent compound was detected by fitting the natural logarithm of the percentage elimination of the parent compound linearly to time.
(§3) The in vitro intrinsic clearance (in μL/min/mg protein) was calculated using the following equation: in vitro CLint=kV/N
(§4) The amplified clearance (in mL/min/kg) was calculated using the following equation: Amplified CLint=kV/N×the amplification factor
(§5) The hepatic clearance (in mL/min/kg) was calculated using the following equation: The predicted hepatic CLH=(Q×Fu/RB×the amplified CLint)/(Q+Fu/RB×the amplified CLint) • V=the incubation volume per well (0.2 mL); • N=the total amount of protein (mg) • Q=the hepatic blood flow (mL/min/kg) • Fu=the plasma free rate (assumed to be 1) • RB=the whole blood partition coefficient (assumed to be 1)
(§6) The hepatic uptake rate was calculated using the following equation:
(§7) The hepatic extraction ratio (ER)=(the predicted hepatic CLH)/Q

[2] = liver microsomal metabolic stability, monkey; conditions: Fu and RB assumed to be 1
Method: as §1, §2, §3, §4, §5, §6, §7

[3] = liver microsomal metabolic stability, canine; conditions: canine; Fu and RB assumed to be 1
Method: as §1, §2, §3, §4, §5, §6, §7

[4] = liver microsomal metabolic stability, mouse; conditions: Fu and RB assumed to be 1
Method: as §1, §2, §3, §4, §5, §6, §7

[5] = liver microsomal metabolic stability, human; conditions: Fu and RB assumed to be 1
Method: as §1, §2, §3, §4, §5, §6, §7

[6] = tested on: A549 cells (human non-small cell lung cancer cell), induced senescent with Cisplatin; test: in vitro killing of induced senescent A549 cells (CCK-8); type: cell-based; conditions: induced senescent A549 cell model, FIG. 1A
Description: A. The killing results of some selected compounds in the in vitro compound library screening on the induced senescent A549 cell model. Wherein, MZ-1, dBET6, ARV-825, I-BET726, I-BET151, and INCB057643 are all BET inhibitors; A1331852 and A1155463 are novel Bcl-xL inhibitors; Dasatinib, Quercetin, Fisetin, Curcumin are the familiar active drugs or natural products.
B. Comparison of the killing effects of three Bcl-xL inhibitors on the induced senescent A549 cell model. A549 represents the normal uninduced A549 cell group; and A549-CDDP represents the senescent A549 cell group induced with Cisplatin (CDDP) in vitro.
(§8) Induction of the Cellular Senescence

non-senescent HEF cells = test: cell killing activity assay, non-senescent HEF cells (Example 7); type: cell-based, human; conditions: highest concentration (25 μM)
Method: as §8
(§9) Cell Killing Activity Assay
(§10) Preparation of the cell plates: The non-senescent, and the induced senescent HEF cells and A549 cells were taken respectively, digested with trypsin, and centrifuged at 1000 rmp for 5 minutes. The supernatants were removed, and the cells were resuspended in fresh DMEM medium containing 10% foetal bovine serum for counting. The cell density was adjusted so that the density of the non-senescent cells was at 4000 cells/100 μL and the density of the senescent cells was at 7000 cells/100 μL. The cell suspension was added to the 96-well transparent cell culture plates at 100 μL per well. […]
(§11) Formulation of the drug concentration gradients: After the cells adhered to the wall on the second day, the small molecule compounds (d-12, d-11, and d-4) to be tested for activity are ready to be added. […]
(§12) Detection of the cell survival after the drug treatment using the CCK-8 method: Three days after the addition of the drug, the well plate was removed, the supernatant was discarded, and 100 μL of the pre-prepared CCK-8 working solution was added to each well. […] The plate was taken out to determine the absorbance value (OD value) of each well at the wavelength of 450 nm. The cell viability in each experimental group was calculated. […]

senescent A549 cells = test: cell killing activity assay, senescent A549 cells (Example 7); type: cell-based, human; conditions: for selective killing of the senescent cells: A549-induced senescence model, three days, CCK-8, FIG. 7
Method: as §8, §9
Preparation of the cell plates: The non-senescent, and the induced senescent HEF cells and A549 cells were taken respectively, digested with trypsin, and centrifuged at 1000 rmp for 5 minutes. The supernatants were removed, and the cells were resuspended in fresh DMEM medium containing 10% foetal bovine serum for counting. The cell density was adjusted so that the density of the non-senescent cells was at 4000 cells/100 μL and the density of the senescent cells was at 7000 cells/100 μL. The cell suspension was added to the 96-well transparent cell culture plates at 100 μL per well. Note that the edge wells of the 96-well plate were not used for the test wells, and 300 μL PBS is added separately to reduce the medium evaporation. The cell-spread 96-well plates were put back into the incubator at 37 °C for the overnight incubation until the cells adhered to the wall.
Formulation of the drug concentration gradients: After the cells adhered to the wall on the second day, the small molecule compounds (d-12, d-11, and d-4) to be tested for activity are ready to be added. […] 3 parallel replicate wells were set up for each test drug concentration. The 96-well plate was put back into the incubator at 37 °C, and the cell survival was tested after three days.
Detection of the cell survival after the drug treatment using the CCK-8 method: Three days after the addition of the drug, the well plate was removed, the supernatant was discarded, and 100 μL of the pre-prepared CCK-8 working solution was added to each well. The CCK-8 working solution was obtained by diluting the CCK8 stock solution (C0041, Beyotime) with the serum-free DMEM medium in 10-fold volume. The 96-well plate added with the CCK-8 working solution was put back to the incubator at 37 °C and incubated for 0.5-2 hours. The plate was taken out to determine the absorbance value (OD value) of each well at the wavelength of 450 nm. The cell viability in each experimental group was calculated. […]

non-senescent A549 cells = test: cell killing activity assay, non-senescent A549 cells (Example 7); type: cell-based, human; conditions: non-senescent A549, highest concentration (25 μM)
Method: as §8, §9, §10, §11, §12

senescent HEF cells = test: cell killing activity assay, senescent HEF cells (Example 7); type: cell-based, human; conditions: HEF-induced senescence model, three days, CCK-8, FIG. 7
Method: as §8, §9, §10, §11, §12

[7] = tested on: senescent cells (A549 and HEF); test: cell killing activity assay, senescent A549 and HEF cell models (Example 7); type: cell-based, human; conditions: FIG. 7
Method: as §8, §9, §10, §11, §12

O=c1ccc2ccc(O)cc2o1 [7-hydroxycoumarin, reference compound]
The predicted intrinsic hepatic clearance Clint [1]: 52.33 mL/min/kg
The predicted intrinsic hepatic clearance Clint [2]: 42.08 mL/min/kg
The predicted intrinsic hepatic clearance Clint [3]: 30.44 mL/min/kg
The predicted intrinsic hepatic clearance Clint [4]: 87.82 mL/min/kg
The predicted intrinsic hepatic clearance Clint [5]: 20.16 mL/min/kg

Cc1sc2c(c1C)C(c1ccc(Cl)cc1)=N[C@@H](CC(=O)Nc1ccc(OCCOCCOCCOCCNc3cccc4c3C(=O)N(C3CCC(=O)NC3=O)C4=O)cc1)c1nnc(C)n1-2 (stereo partly shown) [ARV825]
senescent cell killing activity and selectivity, compound screening [6]: better in vitro killing activity

CN(C)CC#Cc1ccc(OCCCc2sc(N3CCc4cccc(C(=O)Nc5nc6ccccc6s5)c4C3)nc2C(=O)O)c(F)c1 [Compound A1155463]
senescent cell killing activity and selectivity, compound screening [6]: good senescent cell killing activity and selectivity in vitro

Cc1ncsc1-c1ccc(CNC(=O)[C@@H]2C[C@@H](O)CN2C(=O)[C@@H](NC(=O)COCCOCCOCCNC(=O)C[C@@H]2N=C(c3ccc(Cl)cc3)c3c(sc(C)c3C)-n3c(C)nnc32)C(C)(C)C)cc1 [MZ1]
senescent cell killing activity and selectivity, compound screening [6]: better in vitro killing activity

CC(=O)OC[C@H]1O[C@@H](Oc2ccc(C(Cc3cn(CCCN4CCOCC4)nn3)OC(=O)c3nc(N4CCc5cccc(C(=O)Nc6nc7ccccc7s6)c5C4)ccc3-c3cnn(CC45CC6CC(CC(C6)C4)C5)c3C)cc2[N+](=O)[O-])[C@H](OC(C)=O)[C@@H](OC(C)=O)[C@H]1OC(C)=O (stereo partly drawn) [d-11]
killing of the non-senescent cells (non-senescent HEF cells): none of the three molecules killed the non-senescent cells
selective killing of the senescent cells (senescent A549 cells): selective killing of the senescent cells
killing of the non-senescent cells (non-senescent A549 cells): none of the three molecules killed the non-senescent cells
selective killing of the senescent cells (senescent HEF cells): selective killing of the senescent cells

Cc1c(-c2ccc(N3CCc4cccc(C(=O)Nc5nc6ccccc6s5)c4C3)nc2C(=O)OC(Cc2cn(CCCN3CCOCC3)nn2)c2ccc(O[C@@H]3O[C@H](CO)[C@H](O)[C@H](O)[C@H]3O)c([N+](=O)[O-])c2)cnn1CC12CC3CC(CC(C3)C1)C2 (stereo partly drawn) [d-12]
relative activity in killing the senescent cells among the three molecules [7]: relatively more active in killing the senescent cells
killing of the non-senescent cells (non-senescent HEF cells): none of the three molecules killed the non-senescent cells
selective killing of the senescent cells (senescent A549 cells): selective killing of the senescent cells
IC50 (senescent A549 cells; Homo sapiens, 72 h, Cisplatin-induced senescent A549, three days, CCK-8): ~6.9 µM
killing of the non-senescent cells (non-senescent A549 cells): none of the three molecules killed the non-senescent cells
selective killing of the senescent cells (senescent HEF cells): selective killing of the senescent cells

Cc1sc2c(c1C)C(c1ccc(Cl)cc1)=N[C@@H](CC(=O)NCCCCCCCCNC(=O)COc1cccc3c1C(=O)N(C1CCC(=O)NC1=O)C3=O)c1nnc(C)n1-2 (stereo partly shown) [dBET6]
senescent cell killing activity and selectivity, compound screening [6]: better in vitro killing activity

— US20260345582A1, “PRODRUG FOR ANTI-AGING RELATED DISEASES AND USE METHOD THEREOF” (Beijing SunCell Bio-Medical Co., Ltd., priority 2022, published 2026)
